The values below come from patent US20260144780A1, “COMPOSITION FOR ENHANCING ADRENOMEDULLIN GENE EXPRESSION” (HOUSE WELLNESS FOODS CORPORATION, priority 2020, published 2026).

Series [1] relates to intestinal epithelial cells. The conditions noted are these: Non Patent Literature 1, cited from earlier work.
Series [2] in a line: Solubility of isolated oxylipin compounds (physicochemical properties). The conditions noted are these: solvents listed for the isolated compound.
The target of series [3] is T1, human TRPA1 (Homo sapiens, UniProt O75762).
T1 construct: expressed in transfected cells
The series is described as follows: TRP channel agonist activity, intracellular Ca2+ imaging, hTRPA1 stably expressing cell line. The format is cell-based. The conditions noted are these: oxylipin compounds 200 μM and 500 μM, AITC 30 μM, Evaluation 5, FIG. 21. From the text:
DNA fragments containing nucleotide sequences encoding amino acid sequences of human TRPA1 (Accession No. NM_007332.3) (hereinafter referred to also as hTRPA1), human TRPV1 (Accession No. NM_080704.4) (hereinafter referred to also as hTRPV1) and human TRPM8 (Accession No. NM_024080.5) (hereinafter referred to also as hTRPM8) were inserted into pcDNA5/TO vectors (Invitrogen) to construct an hTRPA1 expression vector, an hTRPV1 expression vector and an hTRPM8 expression vector, respectively.
T-REx™_293 cells (Invitrogen) were cultured in Dulbecco's modified Eagle medium (DMEM, Nacalai Tesque Inc.) containing 10% fetal bovine serum (FBS, Cytiva) up to 60 to 70% confluent growth in the wells of a 6 well plate. T-REx™-293 cells were transfected with an hTRPA1 expression vector, an hTRPV1 expression vector or an hTRPM8 expression vector by use of Lipofectamine LTX (Invitrogen) in accordance with a manual.
To Dulbecco's modified Eagle medium (DMEM, Nacalai Tesque Inc.) containing 10% fetal bovine serum (FBS, Cytiva), hygromycin B and blasticidin S were added so as to have a concentration of […] and 5 μg/ml, respectively. In this manner, a drug selection medium was prepared. Twenty-four hours after completion of transfection, the medium of the above cells was exchanged with the drug selection medium, and thereafter, the cells were cultured for 7 days while exchanging the medium with a fresh medium every two days. Living cells were subcultured and regarded as hTRPA1 stably expressing cell line, hTRPV1 stably expressing cell line and hTRPM8 stably expressing cell line, respectively.
The day before assay, cells of the individual expressing cell lines were removed from the medium with a trypsin/EDTA solution and seeded in the wells of a 96-well black-well plate with a clear bottom so as to obtain a cell density of 5×10^4 cells to 6×10^4 cells/well. At this time, tetracycline was added to the medium so as to obtain a concentration of 1 μg/ml to induce expression of hTRPA1, hTRPV1 or hTRPM8. Culture was carried out in an incubator at 37° C. for 24 hours to 48 hours and then cells were washed with PBS. After PBS was removed from the wells, 50 μl of a calcium fluorescent indicator, Calbryte 520 AM (AAT, Bioquest), which was prepared by dissolving CaCl2 dihydrate, HEPES, BSA in an assay buffer HBSS (−) (solution prepared by adding so as to obtain a final concentration of 1 mM, 20 mM and 0.1%, respectively), so as to obtain a concentration of 4 μM, was added, to the wells and incubated at 33° C. for 45 minutes. Thereafter, the cells were again washed with the assay buffer and then 100 μl was allowed to remain in the wells to prepare cells for assay. A solution of a test substance for evaluating TRP channel agonist activity and having a concentration twice as large as the concentration for measurement was prepared within the wells of the 96-well plate and used within 30 minutes after preparation. The cells to be subjected to assay were incubated at 31° C. and a test substance solution (100 μl) was added to the cells for assay by use of Flaxstation3 (Molecular Devices) and fluorescence intensity (excitation wavelength: 490 nm, fluorescence wavelength: 525 nm) was measured every 2 seconds up to 120 seconds. Thirty seconds after initiation of measurement, the (test substance) solution was added to the cells for assay such that a final concentration of the test substance becomes a concentration for measurement.
TRP channel activation ability of a test substance was calculated as a relative value based on the activation ability of 10 μM ionomycin to each of TRP channels, in accordance with the following calculation formula. […]

Setting [4] is: in the presence of 1 μM A-967079 (TRPA1 antagonist).

T1 sequence (O75762 whole entry): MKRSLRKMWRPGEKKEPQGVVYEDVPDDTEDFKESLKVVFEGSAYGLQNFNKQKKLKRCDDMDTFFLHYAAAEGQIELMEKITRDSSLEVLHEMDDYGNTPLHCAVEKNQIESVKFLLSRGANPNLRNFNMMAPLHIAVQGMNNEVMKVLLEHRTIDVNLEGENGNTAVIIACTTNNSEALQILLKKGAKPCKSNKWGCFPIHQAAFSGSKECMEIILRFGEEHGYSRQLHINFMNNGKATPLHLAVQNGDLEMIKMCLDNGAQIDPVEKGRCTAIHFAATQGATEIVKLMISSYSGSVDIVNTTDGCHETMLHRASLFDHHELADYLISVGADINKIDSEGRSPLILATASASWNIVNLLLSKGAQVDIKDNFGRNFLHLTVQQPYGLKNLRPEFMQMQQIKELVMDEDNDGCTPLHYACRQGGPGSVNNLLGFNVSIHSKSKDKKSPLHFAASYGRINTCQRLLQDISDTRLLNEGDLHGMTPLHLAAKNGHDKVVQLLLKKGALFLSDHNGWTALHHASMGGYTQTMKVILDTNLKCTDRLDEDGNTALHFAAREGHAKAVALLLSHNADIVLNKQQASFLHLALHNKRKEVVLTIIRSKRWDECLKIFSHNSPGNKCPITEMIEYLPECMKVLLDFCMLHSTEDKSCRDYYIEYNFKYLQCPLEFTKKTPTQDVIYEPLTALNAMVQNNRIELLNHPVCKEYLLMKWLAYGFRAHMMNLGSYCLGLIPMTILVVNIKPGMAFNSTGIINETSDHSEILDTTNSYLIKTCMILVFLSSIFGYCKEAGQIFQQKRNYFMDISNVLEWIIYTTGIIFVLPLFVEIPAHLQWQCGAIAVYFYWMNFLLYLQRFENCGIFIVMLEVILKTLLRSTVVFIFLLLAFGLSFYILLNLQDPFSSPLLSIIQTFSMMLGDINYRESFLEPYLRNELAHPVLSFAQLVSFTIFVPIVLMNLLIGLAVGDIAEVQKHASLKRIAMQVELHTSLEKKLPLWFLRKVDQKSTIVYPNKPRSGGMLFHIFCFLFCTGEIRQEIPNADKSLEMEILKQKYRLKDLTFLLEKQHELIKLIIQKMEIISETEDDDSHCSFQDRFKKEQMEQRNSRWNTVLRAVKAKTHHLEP

Regarding `CCCCC/C=C/C(=O)CCc1ccc(O)c(OC)c1` [Compound 6-shogaol, 6-shogaol], the “action to promote release of adrenomedullin from the intestinal epithelial cells, with a TRPA1 antagonist” value in series [1] (TRPA1 antagonist added) is “inhibited by a TRPA1 antagonist”. In series [1], the “release of adrenomedullin from the intestinal epithelial cells” value was “have an action to promote release of adrenomedullin from the intestinal epithelial cells”.
Consider `CC/C=C/CC(O)/C=C/C=C\CCCCCCCC(=O)O` (stereo not shown) [Compound R1-2, (9Z,11E,15E)-13-hydroxy-9,11,15-octadecatrienoic acid], for which the Solubility result in series [2] was “ethanol, methanol, acetonitrile, chloroform”. The TRPA1 activation ability result was “showed TRPA1 activation ability in the absence of A-967079 in a concentration dependent manner” in series [3] (in the absence of A-967079) and “did not show TRPA1 activation ability” in series [3] (setting [4]).
As for `CCC(O)/C=C/C=C\C/C=C\CCCCCCCC(=O)O` (stereo not shown) [Compound R2-2, (9Z,12Z,14E)-16-hydroxy-9,12,14-octadecatrienoic acid], the Solubility entry in series [2] is given as “ethanol, methanol, acetonitrile, ethyl acetate, chloroform”. The TRPA1 activation ability entry in series [3] (in the absence of A-967079) was “showed TRPA1 activation ability in the absence of A-967079 in a concentration dependent manner”; in series [3] (setting [4]) it was “did not show TRPA1 activation ability”.
For the compound `CC/C=C\C/C=C\C=C\C(O)CCCCCCCC(=O)O` (stereo not shown) [Compound R3, (10E,12Z,15Z)-9-hydroxy-10,12,15-octadecatrienoic acid], in series [2], the Solubility entry is given as “ethanol, methanol, acetonitrile, ethyl acetate, chloroform”. In addition, the figures for the TRPA1 activation ability result in series [3] (in the absence of A-967079) and in series [3] (setting [4]) were “showed TRPA1 activation ability in the absence of A-967079 in a concentration dependent manner” and “did not show TRPA1 activation ability”, respectively.
With “(7Z,13E,15Z)-12-hydroxy-7,13,15-octadecatrienoic acid and (9Z,13E,15Z)-12-hydroxy-9,13,15-octadecatrienoic acid [Compound R2-1]”, the TRPA1 activation ability entry in series [3] (in the absence of A-967079) is “showed TRPA1 activation ability in the absence of A-967079 in a concentration dependent manner”; in series [3] (setting [4]), “did not show TRPA1 activation ability”.
